# Experimental data taken from patent US9080214B2, “Genetic markers for efficacy of iloperidone in the treatment of psychotic symptoms” (Vanda Pharmaceuticals, Inc., priority 2007, dated 2015).
# Test system: individuals diagnosed with schizophrenia
# Test: Change in PANSS-GP subscale by SNP genotype, patients on iloperidone 24 mg/day b.i.d. for 28 days (MMRM)
# Assay type: in vivo, human
# Description: Earlier studies investigated an association between a polymorphism in the CNTF gene and iloperidone efficacy as well as associations between CYP2D6 and KCNQ1 genotypes and changes in QT interval following the administration of iloperidone. The present study involved the genotyping of DNA samples collected from 426 individuals diagnosed with schizophrenia in an attempt to identify additional SNPs associated with iloperidone efficacy. Each sample was genotyped at more than 500,000 SNP loci using the GeneChip® Human Mapping 500K Array Set (Affymetrix, Santa Clara, Calif.) and using assays developed in-house. Approximately half of the participants in the study were administered 24 mg/day of iloperidone, b.i.d., for 28 days. About 25% of the patients were administered ziprasidone. The remaining participants were administered a placebo. Three analyses of the PANSS-T were conducted. 1) A two-step approach where samples were randomly split into 2 groups of iloperidone-treated patients used to discover SNPs associated with changed in PANSS-T (Discovery phase) and a second group to confirm the 100 most significant SNPs (Confirmatory phase). 2) A one-step approach using the Last Observation Carried Forward (LOCF) PANSS-T data of all iloperidone-treated patients. For each SNP, the most parsimonious genetic model (e.g., homozygous for one allele v. all other genotypes [i.e., AA v. AB and BB], heterozygous v. homozygous [i.e., AB v. AA and BB]) was established with respect to iloperidone efficacy using a one-way analysis of variance (ANOVA). 3) A Mixed-effects Model Repeated Measures (MMRM) analysis was subsequently conducted using the best genetic model of each SNP in the MMRM model. MMRM analyses were also conducted with the PANSS subscales PANSS-P, PANSS-N, and PANSS-GP. The SNPs with a statistically significant association in all 3 analyses of PANSS-T, as well as the best of each analysis were considered significant findings and are listed below in Table 1. Results for each of these SNPs with the PANSS-T scales and with the three subscales PANSS-P, PANSS-N, and PANSS-GP are shown in Tables 2, 3, 4, and 5, respectively. […] In the present case of iloperidone efficacy, it is likely that different markers are more specifically associated with one or a few specific clinical symptoms, which is reflected in the improvement measured in separate subscales.
smiles,measurement,setting,value
"COc1cc(C(C)=O)ccc1OCCCN1CCC(c2noc3cc(F)ccc23)CC1 [iloperidone, 1-[4-[3-[4-(6-fluoro-1,2-benzisoxazol-3-yl)-1-piperidinyl]propoxy]-3-methoxyphenyl]ethanone]",mean of change in PANSS-GP,SNP_A-1819750 (CREG1) genotype A_A,−8.04
same,mean of change in PANSS-GP,SNP_A-1819750 (CREG1) genotype A_B* (lowest response),−4.58
same,mean of change in PANSS-GP,SNP_A-1819750 (CREG1) genotype B_B,−6.81
same,mean of change in PANSS-GP,SNP_A-1819750 (CREG1) genotype nonAB** (highest response),−7.21
same,mean of change in PANSS-GP,SNP_A-1860353 (RAP1B) genotype A_A** (highest response),−17.20
same,mean of change in PANSS-GP,SNP_A-1860353 (RAP1B) genotype A_B,−5.17
same,mean of change in PANSS-GP,SNP_A-1860353 (RAP1B) genotype B_B,−4.96
same,mean of change in PANSS-GP,SNP_A-1860353 (RAP1B) genotype nonAA* (lowest response),−5.00
same,mean of change in PANSS-GP,SNP_A-1934663 genotype A_A,−9.38
same,mean of change in PANSS-GP,SNP_A-1934663 genotype A_B,−8.80
same,mean of change in PANSS-GP,SNP_A-1934663 genotype B_B* (lowest response),−3.07
same,mean of change in PANSS-GP,SNP_A-1934663 genotype nonBB** (highest response),−8.92
same,mean of change in PANSS-GP,SNP_A-1973093 (KIAA0040) genotype A_A,−6.40
same,mean of change in PANSS-GP,SNP_A-1973093 (KIAA0040) genotype A_B* (lowest response),−1.92
same,mean of change in PANSS-GP,SNP_A-1973093 (KIAA0040) genotype B_B,−7.77
same,mean of change in PANSS-GP,SNP_A-1973093 (KIAA0040) genotype nonAB** (highest response),−7.51
same,mean of change in PANSS-GP,SNP_A-1975928 (SLC2A9) genotype A_A,−5.82
same,mean of change in PANSS-GP,SNP_A-1975928 (SLC2A9) genotype A_B,−5.39
same,mean of change in PANSS-GP,SNP_A-1975928 (SLC2A9) genotype B_B* (lowest response),9.62
same,mean of change in PANSS-GP,SNP_A-1975928 (SLC2A9) genotype nonBB** (highest response),−5.72
same,mean of change in PANSS-GP,SNP_A-1987915 (GPR126) genotype A_A,−4.63
same,mean of change in PANSS-GP,SNP_A-1987915 (GPR126) genotype A_B,−4.28
same,mean of change in PANSS-GP,SNP_A-1987915 (GPR126) genotype B_B** (highest response),−7.14
same,mean of change in PANSS-GP,SNP_A-1987915 (GPR126) genotype nonBB* (lowest response),−4.36
same,mean of change in PANSS-GP,SNP_A-2007721 (LOC58486) genotype A_A,−2.52
same,mean of change in PANSS-GP,SNP_A-2007721 (LOC58486) genotype A_B** (highest response),−10.51
same,mean of change in PANSS-GP,SNP_A-2007721 (LOC58486) genotype B_B,−3.91
same,mean of change in PANSS-GP,SNP_A-2007721 (LOC58486) genotype nonAB* (lowest response),−3.90
same,mean of change in PANSS-GP,SNP_A-2044214 (HNT) genotype A_A,−6.83
same,mean of change in PANSS-GP,SNP_A-2044214 (HNT) genotype A_B* (lowest response),−3.34
same,mean of change in PANSS-GP,SNP_A-2044214 (HNT) genotype B_B,−5.68
same,mean of change in PANSS-GP,SNP_A-2044214 (HNT) genotype nonAB** (highest response),−6.43
same,mean of change in PANSS-GP,SNP_A-2048427 (NPAS3) genotype A_A,−9.50
same,mean of change in PANSS-GP,SNP_A-2048427 (NPAS3) genotype A_B,−9.79
same,mean of change in PANSS-GP,SNP_A-2048427 (NPAS3) genotype B_B* (lowest response),−3.44
same,mean of change in PANSS-GP,SNP_A-2048427 (NPAS3) genotype nonBB** (highest response),−9.75
same,mean of change in PANSS-GP,SNP_A-2070454 (NKX2-5) genotype A_A,−3.91
same,mean of change in PANSS-GP,SNP_A-2070454 (NKX2-5) genotype A_B,−4.34
same,mean of change in PANSS-GP,SNP_A-2070454 (NKX2-5) genotype B_B** (highest response),−8.12
same,mean of change in PANSS-GP,SNP_A-2070454 (NKX2-5) genotype nonBB* (lowest response),−4.20
same,mean of change in PANSS-GP,SNP_A-2076797 (NUDT9P1) genotype A_A,−2.80
same,mean of change in PANSS-GP,SNP_A-2076797 (NUDT9P1) genotype A_B** (highest response),−8.23
same,mean of change in PANSS-GP,SNP_A-2076797 (NUDT9P1) genotype B_B,−2.42
same,mean of change in PANSS-GP,SNP_A-2076797 (NUDT9P1) genotype nonAB* (lowest response),−2.62
same,mean of change in PANSS-GP,SNP_A-2103099 (HTR1A) genotype A_A,−7.79
same,mean of change in PANSS-GP,SNP_A-2103099 (HTR1A) genotype A_B* (lowest response),−3.42
same,mean of change in PANSS-GP,SNP_A-2103099 (HTR1A) genotype B_B,−6.80
same,mean of change in PANSS-GP,SNP_A-2103099 (HTR1A) genotype nonAB** (highest response),−7.16
same,mean of change in PANSS-GP,SNP_A-2120958 genotype A_A,−5.90
same,mean of change in PANSS-GP,SNP_A-2120958 genotype A_B,−6.13
same,mean of change in PANSS-GP,SNP_A-2120958 genotype B_B* (lowest response),1.80
same,mean of change in PANSS-GP,SNP_A-2120958 genotype nonBB** (highest response),−5.99
same,mean of change in PANSS-GP,SNP_A-2170121 (C6) genotype A_A,−3.40
same,mean of change in PANSS-GP,SNP_A-2170121 (C6) genotype A_B** (highest response),−10.21
same,mean of change in PANSS-GP,SNP_A-2170121 (C6) genotype B_B,−5.25
same,mean of change in PANSS-GP,SNP_A-2170121 (C6) genotype nonAB* (lowest response),−3.57
same,mean of change in PANSS-GP,SNP_A-2274533 (LZTS1) genotype A_A** (highest response),−7.04
same,mean of change in PANSS-GP,SNP_A-2274533 (LZTS1) genotype A_B,−2.16
same,mean of change in PANSS-GP,SNP_A-2274533 (LZTS1) genotype B_B,−2.33
same,mean of change in PANSS-GP,SNP_A-2274533 (LZTS1) genotype nonAA* (lowest response),−2.20
same,mean of change in PANSS-GP,SNP_A-2283283 (XKR4) genotype A_A* (lowest response),−0.58
same,mean of change in PANSS-GP,SNP_A-2283283 (XKR4) genotype A_B,−6.49
same,mean of change in PANSS-GP,SNP_A-2283283 (XKR4) genotype B_B,−6.90
same,mean of change in PANSS-GP,SNP_A-2283283 (XKR4) genotype nonAA** (highest response),−6.66
same,mean of change in PANSS-GP,SNP_A-2284243 (GRIA4) genotype A_A,−6.57
same,mean of change in PANSS-GP,SNP_A-2284243 (GRIA4) genotype A_B,−6.77
same,mean of change in PANSS-GP,SNP_A-2284243 (GRIA4) genotype B_B* (lowest response),−0.77
same,mean of change in PANSS-GP,SNP_A-2284243 (GRIA4) genotype nonBB** (highest response),−6.69
same,mean of change in PANSS-GP,SNP_A-4204396 (CDH13) genotype A_A,−5.87
same,mean of change in PANSS-GP,SNP_A-4204396 (CDH13) genotype A_B,−5.99
same,mean of change in PANSS-GP,SNP_A-4204396 (CDH13) genotype B_B* (lowest response),1.39
same,mean of change in PANSS-GP,SNP_A-4204396 (CDH13) genotype nonBB** (highest response),−5.91
same,mean of change in PANSS-GP,SNP_A-4212785 (PPP1R3B) genotype A_A* (lowest response),15.61
same,mean of change in PANSS-GP,SNP_A-4212785 (PPP1R3B) genotype A_B,−5.99
same,mean of change in PANSS-GP,SNP_A-4212785 (PPP1R3B) genotype B_B,−5.84
same,mean of change in PANSS-GP,SNP_A-4212785 (PPP1R3B) genotype nonAA** (highest response),−5.89
same,mean of change in PANSS-GP,SNP_A-4230979 (ASB3) genotype A_A,−1.74
same,mean of change in PANSS-GP,SNP_A-4230979 (ASB3) genotype A_B,−3.42
same,mean of change in PANSS-GP,SNP_A-4230979 (ASB3) genotype B_B** (highest response),−8.85
same,mean of change in PANSS-GP,SNP_A-4230979 (ASB3) genotype nonBB* (lowest response),−3.07
same,mean of change in PANSS-GP,SNP_A-4256833 (MLCK) genotype A_A,−7.14
same,mean of change in PANSS-GP,SNP_A-4256833 (MLCK) genotype A_B* (lowest response),−2.62
same,mean of change in PANSS-GP,SNP_A-4256833 (MLCK) genotype B_B,−6.45
same,mean of change in PANSS-GP,SNP_A-4256833 (MLCK) genotype nonAB** (highest response),−6.49
same,mean of change in PANSS-GP,SNP_A-4258279 (RRM1) genotype A_A,−4.64
same,mean of change in PANSS-GP,SNP_A-4258279 (RRM1) genotype A_B* (lowest response),−0.66
same,mean of change in PANSS-GP,SNP_A-4258279 (RRM1) genotype B_B,−6.29
same,mean of change in PANSS-GP,SNP_A-4258279 (RRM1) genotype nonAB** (highest response),−6.27
